Experimental data published in patent US20130131321A1, “LIGANDS FOR ANTIBODY AND Fc-FUSION PROTEIN PURIFICATION BY AFFINITY CHROMATOGRAPHY” (GRAFFINITY PHARMACEUTICALS GMBH, priority 2010, published 2013).
Where two headings read alike, the source gives them in different places.

Tests used:
[1] = system: Bevacizumab; experiment: Microtiter plate chromatography of resins, Bevacizumab whole IgG (bound, yield, selectivity); type: binding, humanized
[2] = target: T1, Bevacizumab (Homo sapiens, UniProt P01857); experiment: as above; type: binding, humanized
T1 construct: fused on or other part: humanised anti-VEGF-A VH domain N-terminal of the gamma-1 constant region (engineered, no UniProt entry)

[3] = system: host cell proteins (HCP); experiment: Microtiter plate chromatography of resins, host cell proteins (bound); type: binding, CHO
[4] = system: Palivizumab; experiment: Microtiter plate chromatography of resins, Palivizumab (bound, yield); type: binding, humanized
[5] = system: human poly-IgG (h-poly-IgG); experiment: Microtiter plate chromatography of resins, human poly-IgG (bound, yield); type: binding
[6] = system: Tocilizumab; experiment: Microtiter plate chromatography of resins, Tocilizumab (bound, yield); type: binding, humanized
[7] = fraction of injected protein bound to resin
[8] = fraction of whole IgG Bevacizumab bound to resin
[9] = mass of whole IgG Bevacizumab eluted / mass injected

Compound | Selectivity [1] | Bevacizumab IgG Bound (%) ([2]; fraction of injected whole IgG bound to resin) | Bevacizumab IgG Yield (%) ([2]; mass eluted / mass injected, whole IgG) | HCP Bound (%) ([3]; fraction of injected host cell proteins bound to resin) | Palivizumab Bound (%) [4, 7] [%] | Palivizumab Yield (%) ([4]; mass eluted / mass injected) | h-poly-IgG Bound (%) [5, 7] [%] | h-poly-IgG Yield (%) ([5]; mass eluted / mass injected) | Tocilizumab Bound (%) [6, 7] [%] | Tocilizumab Yield (%) ([6]; mass eluted / mass injected) | Bevacizumab IgG Bound (%) [2, 8] [%] | Bevacizumab IgG Yield (%) [2, 9] [%] | HCP Bound (%) ([3]; host cell proteins) | Palivizumab Bound (%) [4] [%] | Palivizumab Yield (%) [4] [%] | h-poly-IgG Bound (%) [5] [%] | h-poly-IgG Yield (%) [5] [%] | Tocilizumab Bound (%) [6] [%] | Tocilizumab Yield (%) [6] [%] | Selectivity ([1]; fraction of bound Bevacizumab whole IgG / fraction of bound HCP, truncated beyond values of 10)
COc1ccc(NC(=O)c2cn3ccsc3n2)cc1C(=O)NCCOCCOCC(=O)NCCCCCCN [Ligand L78, 8-[5-(Imidazo-[2,1-b]thiazol-6-ylcarboxamido)-2-methoxyphenylcarboxamido]-3,6-dioxaoctanoic acid (6-amino-1-hexyl)amide] | 7.4 | 100 | 94 | 14 | 61 | 61 | 76 | 76 | 94 | 94 | – | – | – | – | – | – | – | – | – | –
COc1ccc(NC(=O)c2cncc(-c3ccccc3)c2)cc1C(=O)NCCCN [Ligand L11, 2-Methoxy-5-(3-phenylpyridin-5-yl)carboxamidobenzoic acid N-(3-aminopropyl)amide] | 1.7 | – | – | – | – | – | – | – | – | – | 95 | 94 | 56 | 78 | 75 | 89 | 79 | 100 | 89 | –
COc1ccc(C(=O)Nc2nn(C)c3ccccc23)cc1C(=O)NCCCN [Ligand L39, 5-[N-(1-Methylindazol-3-yl)carbamoyl]-2-methoxybenzoic acid (3-amino-1-propyl)amide] | 2.9 | – | – | – | – | – | – | – | – | – | 100 | 100 | 35 | 100 | 100 | 100 | 100 | 100 | 100 | –
COc1ccc(NC(=O)c2cncc(-c3ccc(C(F)(F)F)cc3)c2)cc1C(=O)NCCCN [Ligand L12, 2-Methoxy-5-{3-[4-(trifluoromethyl)phenyl]pyridin-5-yl}carboxamidobenzoic acid N-(3-aminopropyl)amide] | 1.6 | – | – | – | – | – | – | – | – | – | 100 | 50 | 63 | 52 | 41 | 68 | 37 | 61 | 49 | –
COc1ccc(NC(=O)c2cn3cccnc3n2)cc1C(=O)NCCCN [Ligand L63, 5-(Imidazo[1,2-a]pyrimidin-2-ylcarboxamido)-2-methoxybenzoic acid (3-amino-1-propyl)amide] | – | – | – | – | – | – | – | – | – | – | 100 | 95 | 3 | 0 | 0 | 11 | 10 | 4 | 4 | 10.0
Cn1nc(C(=O)Nc2nc(C(=O)NCCCN)cs2)cc1-c1cccs1 [Ligand L19, 2-[1-Methyl-5-(2-thienyl)pyrazol-3-yl]carboxamidothiazole-4-carboxylic acid N-(3-aminopropyl)amide] | 1.8 | – | – | – | – | – | – | – | – | – | 100 | 99 | 56 | 18 | 16 | 49 | 48 | 47 | 48 | –
COc1ccc(NC(=O)c2cc(-c3ccco3)on2)cc1C(=O)NCCCN [Ligand L45, 5-[5-(2-Furyl)isoxazol-3-ylcarboxamido]-2-methoxybenzoic acid (3-amino-1-propyl)amide] | 2.3 | – | – | – | – | – | – | – | – | – | 100 | 82 | 44 | 100 | 100 | 100 | 100 | 100 | 100 | –
